Values after ≈ are worked out from the molar mass of the structure shown. “Also recorded” adds a separate entry of the source. Like-named read-outs stand apart in the source and are kept apart here.

The target of series [1] is F508del-CFTR in CFBE41o– cells (Homo sapiens, UniProt Q99942). The series is described as follows: HS-YFP microfluorimetric assay of F508del-CFTR rescue (corrector activity). The conditions noted are these: for F508del-CFTR corrector activity compared with inh-2 (CFTR activity, primary screen): CFBE41o– cells co-expressing F508del-CFTR and HS-YFP, 24 h treatment, Figure 5; for improvement of the rescue elicited by the double combination VX-661 + VX-445 / mutant CFTR activity upon co-treatment with VX-809 or VX-445: RNF5 inhibitor 5 μM; for improvement of the rescue elicited by the double combination VX-661 + VX-445: VX-661 + VX-445 10 μM + 3 μM; for mutant CFTR activity upon co-treatment with VX-809 or VX-445: VX-809 3 μM, VX-445 3 μM. Format: cell-based. A digest of the protocol:
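CFBE41o– cells stably co-expressing F508del-CFTR and HS-YFP were treated with compounds 24 h after seeding; VX-809 (1 μM) served as positive control. F508del-CFTR was stimulated with forskolin (20 μM) plus VX-770 (1 μM) for 25 min before iodide injection. I– influx rate was taken as initial slope (dF/dt) from an exponential fit of YFP quenching.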

Series [2] is described as follows: Solubility and aggregation in PBS buffer by NMR (SPAM filter, 1H 1D and WaterLOGSY). Format: physicochemical. Particulars: for solubility and aggregation in PBS (in words): NMR; for solubility at 20 µM / solubility at 50 µM / solubility at 100 µM / aggregation in PBS buffer by NMR / solubility: PBS pH 7.5, 1 μM ZnCl2, 1 mM DTT, 10% D2O, 1% DMSO-d6; for solubility at 100 µM: theoretical concentration 100 μM; for aggregation in PBS buffer by NMR: WaterLOGSY. The text has this: Under these circumstances, it was decided to explore the solubility of all the synthetized compounds, regardless of their biological activities, to find a suitable candidate for the validation of our working hypothesis, i.e., that the compounds exert their activities by directly binding to RNF5. For that, we first calculated the predicted octanol/water partition coefficient (log Po/w) and the predicted aqueous solubility (log S) of all the analogues by QikProp (Schrödinger Release 2022-1: QikProp, Schrödinger, LLC, New York, NY, 2021, Table S1). […] To shrink down the number of compounds for solubility experiments, just the ones that had −2.0 < log Po/w < 6 and −6.5 < log S <0.5 values were selected. Among them, the PBS solubility was determined for five representative analogues: (i) 12 and 29 bearing different substituents on the benzyl group A; (ii) 34 and 40 showing the replacement of rings B and C with pyridine-4-yl moieties; (iii) 42 in which the N-phenylbenzamidine portion was replaced with a pyridine-2-yl moiety (Table 1).
All the NMR experiments were recorded at 298 K using a 5 mm CryoProbe QCI ^1H/^19F–^13C/^15N–D quadruple resonance, a shielded z-gradient coil, and an automatic sample changer SampleJet NMR system with temperature control. The solubility of the compounds were evaluated by ^1H 1D experiments and aggregation by WaterLOGSY, testing the compounds in buffer PBS pH 7,5, 1 μM ZnCl2, 1 mM DTT, 10% D2O (for the lock signal), and 1% DMSO-d6 at the theoretical concentrations of 20, 50, and 100 μM in the presence of 200 μM 4-trifluoromethyl benzoic acid (internal reference). For all samples, a 1D ^1H NMR experiment was recorded, the water suppression was obtained using the standard NOESY (nuclear Overhauser effect spectroscopy) preset Bruker pulse sequence, with 64k data points, a spectral width (sw) of 30 ppm, 64 scans, acquisition time (aq) of 1.835 s, a relaxation delay (d1) of 4 s, and a mixing time of 10 ms. […] The data were multiplied by an exponential window function with 1 Hz line broadening prior to Fourier transformation. For NMR binding experiments, the compounds were tested at 50 μM in buffer PBS pH 7.5, 1 μM ZnCl2, 1 mM DTT, 10% D2O (for the lock signal), and 1% DMSO-d6 in the absence and in the presence of 3 μM RNF5. WaterLOGSY experiments were recorded with the same parameters used in solubility assays, but with a higher number of scans (512); STD experiments were recorded with 128 scans, with two on (0.7 and 1 ppm) and one off (−50 ppm) resonance spectra, a Gaussian-shaped train pulse of 50 ms each was employed, with a total saturation time of the protein envelope of 5, 3, 2, 1.5, 1, or 0.5 s. A T1ρ filter of 2 ms was employed in STD experiments to eliminate the background signals from the protein. The STD spectrum was obtained by subtraction of the on-resonance spectrum from the off-resonance spectrum. Subtraction was performed by phase cycling to minimize artifacts arising from magnet and temperature instabilities.

Setting [3] is: PBS buffer, aqueous buffer, kinetic from dmso stock, theoretical concentration 20 μM.
Where [4] appears, read: PBS buffer, aqueous buffer, kinetic from dmso stock, theoretical concentration 50 μM.
Where [5] appears, read: PBS buffer, aqueous buffer, kinetic from dmso stock.
Setting [6] is: PBS buffer, aqueous buffer, kinetic from dmso stock, theoretical concentration 20 μM, read-out: solubility in PBS buffer by NMR, 20 μM.
Setting [7] is: theoretical concentration 50 μM.

Chain of F508del-CFTR in CFBE41o– cells (Q99942 2-180): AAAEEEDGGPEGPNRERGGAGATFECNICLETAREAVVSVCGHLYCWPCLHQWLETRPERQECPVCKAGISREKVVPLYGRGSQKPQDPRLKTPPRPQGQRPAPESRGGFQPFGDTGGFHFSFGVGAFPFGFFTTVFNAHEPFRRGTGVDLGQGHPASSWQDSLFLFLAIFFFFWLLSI
Chain of F508del-CFTR in CFBE41o– cells (P13569 with tags, fused parts or gaps DEL508-508 partner): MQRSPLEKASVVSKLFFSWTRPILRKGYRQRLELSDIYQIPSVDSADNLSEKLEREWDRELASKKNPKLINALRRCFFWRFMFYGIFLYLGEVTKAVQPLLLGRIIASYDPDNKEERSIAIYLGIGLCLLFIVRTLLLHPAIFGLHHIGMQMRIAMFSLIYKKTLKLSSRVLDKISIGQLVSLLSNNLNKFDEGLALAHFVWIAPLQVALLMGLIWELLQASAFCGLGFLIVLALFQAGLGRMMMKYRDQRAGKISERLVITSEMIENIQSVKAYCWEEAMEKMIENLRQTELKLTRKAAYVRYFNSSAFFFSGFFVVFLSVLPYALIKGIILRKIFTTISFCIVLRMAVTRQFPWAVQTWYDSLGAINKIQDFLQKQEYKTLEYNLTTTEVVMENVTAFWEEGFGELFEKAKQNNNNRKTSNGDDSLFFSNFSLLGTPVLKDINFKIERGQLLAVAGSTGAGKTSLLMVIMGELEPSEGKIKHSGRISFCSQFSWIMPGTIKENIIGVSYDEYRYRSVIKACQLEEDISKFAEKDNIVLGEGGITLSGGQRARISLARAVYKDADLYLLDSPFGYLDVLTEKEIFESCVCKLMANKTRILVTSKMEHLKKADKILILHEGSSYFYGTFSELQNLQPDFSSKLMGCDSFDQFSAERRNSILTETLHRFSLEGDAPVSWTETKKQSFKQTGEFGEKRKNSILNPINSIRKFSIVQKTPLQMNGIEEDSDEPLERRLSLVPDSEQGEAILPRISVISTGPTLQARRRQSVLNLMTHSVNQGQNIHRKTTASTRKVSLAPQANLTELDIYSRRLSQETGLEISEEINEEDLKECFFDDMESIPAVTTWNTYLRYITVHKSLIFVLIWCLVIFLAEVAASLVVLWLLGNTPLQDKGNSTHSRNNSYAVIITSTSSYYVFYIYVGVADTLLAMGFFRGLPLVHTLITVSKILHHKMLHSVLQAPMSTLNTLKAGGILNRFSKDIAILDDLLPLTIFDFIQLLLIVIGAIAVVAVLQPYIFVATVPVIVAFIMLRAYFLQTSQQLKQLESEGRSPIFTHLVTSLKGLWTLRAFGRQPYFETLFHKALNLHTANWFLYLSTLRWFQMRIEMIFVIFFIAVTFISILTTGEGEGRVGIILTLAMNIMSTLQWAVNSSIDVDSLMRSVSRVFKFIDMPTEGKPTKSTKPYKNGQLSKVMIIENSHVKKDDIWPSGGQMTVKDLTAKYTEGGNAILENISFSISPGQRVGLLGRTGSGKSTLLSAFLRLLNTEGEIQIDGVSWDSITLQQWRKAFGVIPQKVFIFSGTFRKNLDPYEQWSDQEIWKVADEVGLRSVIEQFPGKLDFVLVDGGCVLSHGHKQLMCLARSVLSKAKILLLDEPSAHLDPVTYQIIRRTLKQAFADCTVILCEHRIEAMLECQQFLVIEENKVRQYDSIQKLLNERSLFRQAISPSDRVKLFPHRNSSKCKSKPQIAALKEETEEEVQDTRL

Usually solubility stands for the concentration that dissolves in the medium under given conditions. Regarding `Cc1ns/c(=N\C(=N\c2ccccc2)c2ccccc2)n1Cc1ccc(C(=O)O)cc1` [Compound 12, 4-(((Z)-3-Methyl-5-(((E)-phenyl(phenylimino)methyl)imino)-1,2,4-thiadiazol-4(5H)-yl)methyl)benzoic Acid], in series [1], the “F508del-CFTR corrector activity compared with inh-2 (CFTR activity, primary screen)” value is given as “reduced potency; also recorded: lower F508del-CFTR activity compared to inh-2”. Moreover, the “solubility and aggregation in PBS (in words)” value (“solubility and aggregation” below) in series [2] (PBS buffer) was “no aggregation and solubility suitable for in vitro/biophysical binding experiments”. This compound registered a solubility at 20 µM in series [2] (setting [3]) of 20 µM (≈ 8.57 µg/mL). Moreover, the concentration in solution in series [2] (setting [4]) (solubility at 50 µM) was 50 µM (≈ 21.4 µg/mL). The same compound yielded a solubility at 100 µM in series [2] (setting [5]) of 100 µM (≈ 42.9 µg/mL). For the same compound, the “aggregation in PBS buffer by NMR” value in series [2] is “no”.

`Cc1ns/c(=N\C(=N\c2ccncc2)c2ccccc2)n1Cc1ccccc1` [Compound 40, (E)-N-((Z)-4-Benzyl-3-methyl-1,2,4-thiadiazol-5(4H)-ylidene)-N′-(pyridin-4-yl)benzimidamide]: the “F508del-CFTR corrector activity compared with inh-2 (CFTR activity, primary screen)” value in series [1] was “inactive analogs; also recorded: almost inactive as CFTR correctors”. Besides, the “solubility and aggregation” value in series [2] (PBS buffer) is “no aggregation and solubility suitable for in vitro/biophysical binding experiments”. In series [2] (setting [3]), this compound yielded a solubility at 20 µM of 20 µM (≈ 7.71 µg/mL). Besides, in series [2] (PBS buffer, aqueous buffer, kinetic from dmso stock, theoretical concentration 50 μM, read-out: solubility in PBS buffer by NMR, 50 μM), the solubility is 30 µM (≈ 11.6 µg/mL). Further, in series [2], the “aggregation in PBS buffer by NMR” value was “no”.

Take `Cc1ns/c(=N\c2ccccn2)n1Cc1ccccc1` [Compound 42, (Z)-4-Benzyl-3-methyl-N-(pyridin-2-yl)-1,2,4-thiadiazol-5(4H)-imine]: the “F508del-CFTR corrector activity compared with inh-2 (CFTR activity, primary screen)” value in series [1] is “inactive compounds; also recorded: almost inactive as CFTR correctors”. Besides, in series [2] (PBS buffer), the “solubility and aggregation” value was “no aggregation and solubility suitable for in vitro/biophysical binding experiments”. Besides, the concentration in solution in series [2] (setting [3]) (solubility at 20 µM) was 20 µM (≈ 5.65 µg/mL). The same compound registered a solubility at 50 µM in series [2] (setting [4]) of 40 µM (≈ 11.3 µg/mL). For the same compound, the solubility at 100 µM in series [2] (setting [5]) turned out to be 5 µM (≈ 1.41 µg/mL). Moreover, in series [2], the “aggregation in PBS buffer by NMR” value is on record as “no”.

For `COc1cccc(Cn2c(C)ns/c2=N\C(=N\c2ccccc2)c2ccccc2)c1` [Compound 16, (E)-N-((Z)-4-(3-Methoxybenzyl)-3-methyl-1,2,4-thiadiazol-5(4H)-ylidene)-N′-phenylbenzimidamide], the “F508del-CFTR corrector activity compared with inh-2 (CFTR activity, primary screen)” value in series [1] was “increased activity; also recorded: greater F508del-CFTR rescue than inh-2”. In addition, in series [1] (CFBE41o– cells, 16 5 μM alone or combined with VX-661 + VX-445 (10 μM + 3 μM), 24 h), the “F508del-CFTR activity in cells transfected with NT or RNF5 siRNA” value is on record as “increased the F508del-CFTR activity only in cells transfected with NT siRNA, but not in those transfected with RNF5 siRNA”. Further, in series [1] (CFBE41o– cells, 24 h), the “improvement of the rescue elicited by the double combination VX-661 + VX-445” value is “able to further improve the rescue” and the “mutant CFTR activity upon co-treatment with VX-809 or VX-445” value is “significantly increased mutant CFTR activity”. Also, in series [2] (setting [6]), the solubility was below 5 µM. Further, in series [2], the “aggregation in PBS buffer by NMR” value is given as “no” and the solubility at 100 µM is below 5 µM. The compound also had a solubility at 50 µM in series [2] (setting [7]) below 5 µM.

With `Cc1ns/c(=N\C(=N\c2ccccc2)c2ccccc2)n1Cc1ccccc1` [inh-2, reference compound], in series [1] (CFBE41o– cells, 24 h), the “improvement of the rescue elicited by the double combination VX-661 + VX-445” value was “only analogue 16 was able to further improve the rescue” and the “mutant CFTR activity upon co-treatment with VX-809 or VX-445” value is “significantly increased mutant CFTR activity”. Moreover, the solubility in series [2] (setting [6]) was below 5 µM. In series [2], the “aggregation in PBS buffer by NMR” value was “no” and the solubility at 100 µM is listed as below 5 µM. Besides, in series [2] (setting [7]), the solubility at 50 µM is on record as below 5 µM.

These data come from paper PMC10388311, “Innovative Strategy toward Mutant CFTR Rescue in Cystic Fibrosis: Design and Synthesis of Thiadiazole Inhibitors of the E3 Ligase RNF5” (Journal of Medicinal Chemistry, 2023).
